Measurements reported in patent publication US6602865B1, “Pyridazino(4,5-b)(1,5)oxazepinone, -thiazepinone and -diazepinone compounds” (IVAX Drug Research Institute, Ltd., priority 1998, dated 2003).

Test system: scopolamine-induced memory-deficit in rats
Experiment: Passive avoidance test, scopolamine-induced memory deficit in rats
Type: in vivo, rat
Settings: oral dose 50 mg/kg
Procedure: The memory-enhancing effect of the compounds according to the invention was measured by counter-balancing the scopolamine-induced memory-deficit in rats, with oral doses of 50 mg/kg, in the passive avoidance test published by Cumin, R. et al. [Psychopharmacology, 78, 104 (1982)].

Row | Compound | Memory improvement compared to amnesic control (%)
1 | O=c1c2c(cnn1CC=Cc1ccccc1)N(Cc1ccccc1)CCCO2 [Example 7, 5-Benzyl-8-cynnamyl-2,3,4,5-tetrahydro-9(8H)-pyridazino[4,5-b][1,5]oxazepinone] | 250

Test system: AMPA
Experiment: AMPA-induced spreading depression of chick retina
Settings: 20 μM
Procedure: The AMPA antagonistic effect of the compounds was also tested on spreading depression of chick retina (Sheardown, M. J.: Brain Res., 1993, 607, 189) in a concentration of 20 μM.

Row | Compound | Antagonistic effect on AMPA-induced spreading depression (%)
2 | Cn1ncc2c(c1=O)SCCNC2C(=O)c1ccccc1 (stereo not shown) [Example 3, 5-Benzoyl-8-methyl-2,3,4,5-tetrahydro-9(8H)-pyridazino[4,5-b][1,5]thiazepinone] | 10
3 | Cn1ncc2c(c1=O)SCCNC2Cc1ccccc1 (stereo not shown) [Example 11, 5-Benzyl-8-methyl-2,3,4,5-tetrahydro-9(8H)-pyridazino[4,5-b][1,5]thiazepinone] | 28
4 | O=c1c2c(cnn1CC=Cc1ccccc1)N(Cc1ccccc1)CCCO2 [Example 7, 5-Benzyl-8-cynnamyl-2,3,4,5-tetrahydro-9(8H)-pyridazino[4,5-b][1,5]oxazepinone] | 16
5 | O=c1c2c(cnn1-c1ccccc1)C(Cc1ccccc1)NCCS2 (stereo not shown) [Example 13, 5-Benzyl-8-phenyl-2,3,4,5-tetrahydro-9(8H)-pyridazino[4,5-b]-[1,5]thiazepinone] | 48
6 | Cn1ncc2c(c1=O)OCCNC2Cc1ccccc1 (stereo not shown) [Example 4, 5-Benzyl-8-methyl-2,3,4,5-tetrahydro-9(8H)-pyridazino[4,5-b][1,5]oxazepinone] | 17
7 | Cn1ncc2c(c1=O)SCCNC2Cc1ccc(Cl)cc1 (stereo not shown) [Example 12, 5-(4-Chlorobenzyl)-8-methyl-2,3,4,5-tetrahydro-9(8H)-pyridazino[4,5-b]-[1,5]thiazepinone] | 32
